Data: patent publication US20080194528A1, “Pharmaceutical compositions comprising organopolysiloxane elastomers and solubilized bioactive compounds” (GALDERMA RESEARCH AND DEVELOPMENT, priority 2005, published 2008)

Experiment: Active ingredient solubility tests in various solvents
Format: physicochemical
Procedure: The solubility of {4-[6-ethyl-4′-(1-ethyl-1-hydroxypropyl)-2′-propylbiphenyl-3-yloxymethyl]-2-hydroxymethylphenyl}methanol was tested in various solvents.

CCCc1cc(C(O)(CC)CC)ccc1-c1cc(OCc2ccc(CO)c(CO)c2)ccc1CC [compound 3, {4-[6-ethyl-4′-(1-ethyl-1-hydroxypropyl)-2′-propylbiphenyl-3-yloxymethyl]-2-hydroxymethylphenyl}methanol]
Max sol (% w/w) (in Arlamol E): 1.033 % w/w
Max sol (% w/w) (in Cremophor RH40): 3.989 % w/w
Max sol (% w/w) (in Ethanol 95): >20 % w/w
Max sol (% w/w) (in Eutanol G): 0.322 % w/w
Max sol (% w/w) (in IPP): 0.1654 % w/w
Max sol (% w/w) (in Labrafil M1944CS): 0.936 % w/w
Max sol (% w/w) (in Miglyol 812): 0.3167 % w/w
Max sol (% w/w) (in PEG 400): 6.894 % w/w
Max sol (% w/w) (in Primol 352): 0.0009 % w/w
Max sol (% w/w) (in Propylene Glycol): 2.3351 % w/w
Max sol (% w/w) (in Sweet almond oil): 0.0932 % w/w
Max sol (% w/w) (in Transcutol): >20 % w/w
